Tests used:
Type in all cases: in vivo
[1] = test system: barnyardgrass (Echinochloa crus-galli); test: Test A preemergence; conditions: Echinochloa crus-galli, pre-emergence, 240 h, 0 to 100 scale where 0 is no effect and 100 is complete control, read-out: Barnyardgrass plant response rating; for pest or weed control at 31 g/ha: 31 g ai/ha, Preemergence; for pest or weed control at 125 g/ha: 125 g ai/ha, preemergence, visual injury rating, approximately 10 d
In short: (§1)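 Greenhouse, ~10 d after spray; visual injury vs untreated controls, 0 = no effect, 100 = complete control. Preemergence: directed soil spray over planted seeds. Postemergence: plants 2–10 cm, 1–2 leaf stage. Loam/sand blend. Compound in non-phytotoxic solvent with surfactant.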

[2] = test system: giant foxtail (Setaria faberii); test: Test A preemergence; conditions: Setaria faberi, pre-emergence, 240 h, 0 to 100 scale where 0 is no effect and 100 is complete control, read-out: Foxtail, Giant plant response rating; for pest or weed control at 31 g/ha: 31 g ai/ha, Preemergence; for pest or weed control at 125 g/ha: 125 g ai/ha, preemergence, visual injury rating, approximately 10 d
In short: as §1

[3] = test system: ragweed (common ragweed, Ambrosia elatior); test: Test A preemergence; conditions: Ambrosia artemisiifolia, pre-emergence, 240 h, 0 to 100 scale where 0 is no effect and 100 is complete control, read-out: Ragweed plant response rating; for pest or weed control at 31 g/ha: 31 g ai/ha, Preemergence; for pest or weed control at 125 g/ha: 125 g ai/ha, preemergence, visual injury rating, approximately 10 d
In short: as §1

[4] = test system: pigweed (Amaranthus retroflexus); test: Test A preemergence; conditions: Amaranthus retroflexus, pre-emergence, 240 h, 0 to 100 scale where 0 is no effect and 100 is complete control, read-out: Pigweed plant response rating; for pest or weed control at 31 g/ha: 31 g ai/ha, Preemergence; for pest or weed control at 125 g/ha: 125 g ai/ha, preemergence, visual injury rating, approximately 10 d
[5] = test system: ryegrass, Italian (Italian ryegrass, Lolium multiflorum); test: Test A preemergence; conditions: Lolium multiflorum, pre-emergence, 240 h, 0 to 100 scale where 0 is no effect and 100 is complete control, read-out: Ryegrass, Italian plant response rating; for pest or weed control at 31 g/ha: 31 g ai/ha, Preemergence; for pest or weed control at 125 g/ha: 125 g ai/ha, preemergence, visual injury rating, approximately 10 d
In short: as §1

[6] = test system: Kochia (Kochia scoparia); test: Test A preemergence; conditions: Bassia scoparia, pre-emergence, 240 h, 0 to 100 scale where 0 is no effect and 100 is complete control, read-out: Kochia plant response rating; for pest or weed control at 31 g/ha: 31 g ai/ha, Preemergence; for pest or weed control at 125 g/ha: 125 g ai/ha, preemergence, visual injury rating, approximately 10 d
In short: as §1

[7] = test system: barnyardgrass (Echinochloa crus-galli); test: Test B flooded paddy test; conditions: Echinochloa crus-galli, 250 g ai/ha, Flood; 0 to 100 scale where 0 is no effect and 100 is complete control; read-out: Barnyardgrass plant response rating
In short: (§2)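 Flooding to 3 cm over soil accompanied treatment, which consisted of adding compound to the standing water around 2-leaf plants; depth was then maintained. Visual assessment versus controls followed at 13 to 15 d (scale 0–100, 0 meaning no effect).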

[8] = test system: sedge, umbrella (small-flower umbrella sedge, Cyperus difformis); test: Test B flooded paddy test; conditions: Cyperus difformis, 250 g ai/ha, Flood; 0 to 100 scale where 0 is no effect and 100 is complete control; read-out: Sedge, Umbrella plant response rating
In short: as §2

[9] = test system: rice (Oryra sativa); test: Test B flooded paddy test; conditions: Oryza sativa, 250 g ai/ha, Flood; 0 to 100 scale where 0 is no effect and 100 is complete control; read-out: Rice plant response rating
In short: as §2

[10] = test system: ducksalad (Heteranthera limosa); test: Test B flooded paddy test; conditions: Heteranthera limosa, 250 g ai/ha, Flood; 0 to 100 scale where 0 is no effect and 100 is complete control; read-out: Ducksalad plant response rating
In short: as §2

[11] = test system: Galium (catchweed bedstraw, Galium aparine); test: Test A postemergence; conditions: Galium, post-emergence, 240 h, Postemergence, read-out: Galium plant response rating (0 to 100 scale); for pest or weed control at 125 g/ha: 125 g ai/ha, visual rating about 10 d after treatment; for pest or weed control at 31 g/ha: 31 g ai/ha, 0 is no effect, 100 is complete control
In short: as §1

[12] = test system: barnyardgrass (Echinochloa crus-galli); test: Test A postemergence; conditions: Echinochloa crus-galli, post-emergence, 240 h, Postemergence; for pest or weed control at 125 g/ha: 125 g ai/ha, visual rating about 10 d after treatment, read-out: Barnyardgrass plant response rating (0 to 100 scale, 0 no effect, 100 complete control); for pest or weed control at 31 g/ha: 31 g ai/ha, 0 is no effect, 100 is complete control, read-out: Barnyardgrass plant response rating (0 to 100 scale)
In short: as §1

[13] = test system: wheat (Triticum aestivum); test: Test A postemergence; conditions: Triticum aestivum, post-emergence, 240 h, Postemergence, read-out: Wheat plant response rating (0 to 100 scale); for plant injury at 125 g/ha: 125 g ai/ha, visual rating about 10 d after treatment; for plant injury at 31 g/ha: 31 g ai/ha, 0 is no effect, 100 is complete control
In short: as §1

[14] = test system: corn (Zea mays); test: Test A postemergence; conditions: Zea mays, post-emergence, 240 h, Postemergence, read-out: Corn plant response rating (0 to 100 scale); for plant injury at 125 g/ha: 125 g ai/ha, visual rating about 10 d after treatment; for plant injury at 31 g/ha: 31 g ai/ha, 0 is no effect, 100 is complete control
In short: as §1

[15] = test system: giant foxtail (Setaria faberii); test: Test A postemergence; conditions: Setaria faberi, post-emergence, 240 h, Postemergence, read-out: Foxtail, Giant plant response rating (0 to 100 scale); for pest or weed control at 125 g/ha: 125 g ai/ha, visual rating about 10 d after treatment; for pest or weed control at 31 g/ha: 31 g ai/ha, 0 is no effect, 100 is complete control
In short: as §1

[16] = test system: ragweed (common ragweed, Ambrosia elatior); test: Test A postemergence; conditions: Ambrosia artemisiifolia, post-emergence, 240 h, Postemergence, read-out: Ragweed plant response rating (0 to 100 scale); for pest or weed control at 125 g/ha: 125 g ai/ha, visual rating about 10 d after treatment; for pest or weed control at 31 g/ha: 31 g ai/ha, 0 is no effect, 100 is complete control
In short: as §1

[17] = test system: blackgrass (Alopecurus myosuroides); test: Test A postemergence; conditions: Alopecurus myosuroides, post-emergence, 240 h, Postemergence, read-out: Blackgrass plant response rating (0 to 100 scale); for pest or weed control at 125 g/ha: 125 g ai/ha, visual rating about 10 d after treatment; for pest or weed control at 31 g/ha: 31 g ai/ha, 0 is no effect, 100 is complete control
In short: as §1

[18] = test system: pigweed (Amaranthus retroflexus); test: Test A postemergence; conditions: Amaranthus retroflexus, post-emergence, 240 h, Postemergence, read-out: Pigweed plant response rating (0 to 100 scale); for pest or weed control at 125 g/ha: 125 g ai/ha, visual rating about 10 d after treatment; for pest or weed control at 31 g/ha: 31 g ai/ha, 0 is no effect, 100 is complete control
In short: as §1

[19] = test system: ryegrass, Italian (Italian ryegrass, Lolium multiflorum); test: Test A postemergence; conditions: Lolium multiflorum, post-emergence, 240 h, Postemergence, read-out: Ryegrass, Italian plant response rating (0 to 100 scale); for pest or weed control at 125 g/ha: 125 g ai/ha, visual rating about 10 d after treatment; for pest or weed control at 31 g/ha: 31 g ai/ha, 0 is no effect, 100 is complete control
In short: as §1

[20] = test system: Kochia (Kochia scoparia); test: Test A postemergence; conditions: Bassia scoparia, post-emergence, 240 h, Postemergence, read-out: Kochia plant response rating (0 to 100 scale); for pest or weed control at 125 g/ha: 125 g ai/ha, visual rating about 10 d after treatment; for pest or weed control at 31 g/ha: 31 g ai/ha, 0 is no effect, 100 is complete control
In short: as §1

CN1C[C@H](c2cc(Cl)cc(Cl)c2)[C@@H](C(=O)Nc2ccccc2F)C1=O [Compound 1269]
70%: pest or weed control at 31 g/ha [1]
30%: pest or weed control at 125 g/ha [5] | pest or weed control at 125 g/ha [18] | pest or weed control at 125 g/ha [19]
80%: plant injury at 125 g/ha [14] | pest or weed control at 125 g/ha [15]
0%: pest or weed control at 31 g/ha [3] | pest or weed control at 125 g/ha [3] | pest or weed control at 31 g/ha [4] | pest or weed control at 125 g/ha [4] | pest or weed control at 31 g/ha [5] | pest or weed control at 31 g/ha [6] | pest or weed control at 250 g/ha [8] | pest or weed control at 250 g/ha [9] | pest or weed control at 31 g/ha [11] | plant injury at 31 g/ha [13] | plant injury at 31 g/ha [14] | pest or weed control at 125 g/ha [16] | pest or weed control at 31 g/ha [16] | pest or weed control at 31 g/ha [17] | pest or weed control at 31 g/ha [18] | pest or weed control at 31 g/ha [19] | pest or weed control at 31 g/ha [20]
90%: pest or weed control at 125 g/ha [1] | pest or weed control at 31 g/ha [2] | pest or weed control at 125 g/ha [2] | pest or weed control at 250 g/ha [10] | pest or weed control at 125 g/ha [12] | pest or weed control at 31 g/ha [12]
60%: pest or weed control at 250 g/ha [7] | pest or weed control at 125 g/ha [11] | plant injury at 125 g/ha [13] | pest or weed control at 31 g/ha [15]
50%: pest or weed control at 125 g/ha [6]
40%: pest or weed control at 125 g/ha [17] | pest or weed control at 125 g/ha [20]

Cc1c(F)cccc1NC(=O)[C@H]1C(=O)N(C)C[C@@H]1c1ccc2c(c1)C(F)(F)C(F)(F)O2 [Compound 1272]
60%: pest or weed control at 125 g/ha [5] | pest or weed control at 125 g/ha [11]
20%: pest or weed control at 31 g/ha [5] | pest or weed control at 125 g/ha [6] | pest or weed control at 250 g/ha [9] | plant injury at 31 g/ha [13] | pest or weed control at 31 g/ha [17] | pest or weed control at 31 g/ha [19] | pest or weed control at 125 g/ha [20]
80%: pest or weed control at 250 g/ha [10] | pest or weed control at 125 g/ha [15]
40%: pest or weed control at 31 g/ha [12] | pest or weed control at 125 g/ha [17]
0%: pest or weed control at 31 g/ha [3] | pest or weed control at 125 g/ha [3] | pest or weed control at 31 g/ha [4] | pest or weed control at 125 g/ha [4] | pest or weed control at 31 g/ha [6] | pest or weed control at 250 g/ha [8] | plant injury at 31 g/ha [14] | pest or weed control at 125 g/ha [16] | pest or weed control at 31 g/ha [16] | pest or weed control at 125 g/ha [18] | pest or weed control at 31 g/ha [18] | pest or weed control at 31 g/ha [20]
70%: pest or weed control at 125 g/ha [12]
50%: pest or weed control at 250 g/ha [7] | pest or weed control at 31 g/ha [11] | plant injury at 125 g/ha [13] | plant injury at 125 g/ha [14] | pest or weed control at 31 g/ha [15]
30%: pest or weed control at 125 g/ha [19]
90%: pest or weed control at 31 g/ha [1] | pest or weed control at 125 g/ha [1] | pest or weed control at 31 g/ha [2] | pest or weed control at 125 g/ha [2]
